Measured values taken from patent US6447818B1, “Compositions containing compounds with adrenergic activity and vegetable extracts of Crataegus and gingko biloba for the treatment of overweight and obesity” (Ambros Pharma S.R.L., priority 1999, dated 2002).

System: systemic arterial pressure and cardiac frequency in the rat
Assay: Hypertensive and tachycardic effects of adrenergic substances and extracts in the anesthetized rat
Type: in vivo
Conditions: i.v., anesthetized male Wistar rats, dose-dependent
Source text: 1. Effects of Crataegus Extract and Oterin® on Hypertension Induced with Ephedrine or with Extract of Ephedra Sinica Standardized in Ephedrine or Induced with Synephrine, or with Extract of Citrus Aurantium Standardized in Synephrine in the Rat
Male Wistar rats (Charles River, Calco-CO) weighing 180-200 grams were used. The animals were anesthetized with ethylurethane (1.2-1.5 g/kg i.p.) and prepared for the recording of systemic arterial pressure (via the carotid artery) and cardiac frequency. Individual examples of the registration (copies of the original tracings) and the summary of the mean data (±SEM) are given in FIGS. 1-4.
The dosages of synephrine leading to hypertensive activity were slightly higher (0.5-2 mg/kg i.v.) (FIGS. 2A, 3C). […] Tachycardia was induced in the same dose-dependent manner (FIGS. 3A, 3B).

Structure (SMILES): CNCC(O)c1ccc(O)cc1 (stereo not shown) [synephrine]
- dosages inducing hypertensive effects on the arterial pressure: 0.5 to 2 mg/kg
